# Assay results reported in patent US20250163104A1, “MACROCYCLIC IMMUNOMODULATORS” (priority 2021, published 2025).
# Where a SMILES comes first, the peptide text is derived from it. Bridges are numbered along the chain shown (N, C = ends). [ ]: non-standard residue; d: D form. The star is where a group is joined. ξ: configuration not given here. Bip = N[C@@H](Cc1ccc(-c2ccccc2)cc1)C(=O)O; NMehArg = CN[C@@H](CCCCNC(=N)N)C(=O)O; Cha = N[C@@H](CC1CCCCC1)C(=O)O; Ile(3ξ) = CCC(C)[C@H](N)C(=O)O; Thr(3ξ) = CC(O)[C@H](N)C(=O)O; Dap(Me) = CNC[C@H](N)C(=O)O; Carboxymethyl = O=C(O)C*; Orn = NCCC[C@H](N)C(=O)O; Dab = NCC[C@H](N)C(=O)O
# Target: T1, human PD-1 / PD-L1-Ig binding on Jurkat cell line over-expressing human PD-1 (Jurkat-PD-1) (Homo sapiens, UniProt Q15116)
# T1 construct: expressed in transfected cells; host or cells: Jurkat
# Experiment: Jurkat-PD-1 Cell Binding High-Content Screening Assay (CBA)
# Assay type: cell-based
# Details: Jurkat-PD-1 cells, PE-labeled PD-L1-Ig 20 nM final; read-out: Jurkat HPD1_PDL1 IC50
# Summary of the method: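 PE-PD-L1-Ig 20 nM final; cells in DMEM/10% FCS; cpd pre-incubation 2 h, 37° C; ligand 1 h; PFA fix + Hoechst 33342; high-content imaging read-out.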
# T1 sequence (Q15116 25-288): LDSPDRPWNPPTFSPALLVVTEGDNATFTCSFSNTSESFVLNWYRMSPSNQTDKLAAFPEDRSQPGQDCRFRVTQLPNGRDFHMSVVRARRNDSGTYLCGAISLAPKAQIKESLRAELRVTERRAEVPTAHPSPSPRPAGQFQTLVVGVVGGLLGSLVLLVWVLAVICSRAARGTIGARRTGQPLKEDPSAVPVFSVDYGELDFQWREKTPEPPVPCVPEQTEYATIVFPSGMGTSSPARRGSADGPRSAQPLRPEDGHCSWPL
row,Compound,IC50
1,CCC(C)[C@@H]1NC(=O)[C@H](Cc2ccc(-c3ccccc3)cc2)NC(=O)[C@H](C(C)C)NC(=O)[C@H](Cc2c[nH]c3ccccc23)NC(=O)[C@H](CC(=O)O)NC(=O)[C@H](Cc2ccc(OCC(=O)O)cc2)NC(=O)[C@H](CCN)NC(=O)CSC[C@@H](C(=O)N[C@@H](C)C(N)=O)NC(=O)[C@H](C(C)O)NC(=O)[C@H](C(C)C)NC(=O)[C@H](CC(C)C)NC(=O)[C@H](CCN)NC(=O)[C@@H](CC(C)C)NC(=O)[C@H](CCCN)NC1=O (stereo partly drawn) [Compound 2507] ({CH2CO}-[Dab]Y(Carboxymethyl)DWV[Bip][Ile(3ξ)][Orn][dL][Dab]LV[Thr(3ξ)]CA-NH2; thioether N-14),20.8 nM
2,CC(C)C[C@H]1NC(=O)[C@H](CCCN)NC(=O)[C@H](C(C)C)NC(=O)[C@H](Cc2ccc(-c3ccccc3)cc2)NC(=O)[C@H](C(C)C)NC(=O)[C@H](Cc2c[nH]c3ccccc23)NC(=O)[C@H](CC(=O)O)NC(=O)[C@H](Cc2ccc(OCC(=O)O)cc2)NC(=O)[C@H](C(C)O)NC(=O)CSC[C@@H](C(=O)N[C@@H](C)C(N)=O)NC(=O)[C@H](C(C)O)NC(=O)[C@H](C(C)C)NC(=O)C(CC2CCCCC2)NC(=O)[C@H](CCN)NC1=O (stereo partly drawn) [Compound 2511],5.1 nM
3,CCC(C)[C@@H]1NC(=O)[C@H](Cc2ccc(-c3ccccc3)cc2)NC(=O)[C@H](C(C)C)NC(=O)[C@H](Cc2c[nH]c3ccccc23)NC(=O)[C@H](CC(=O)O)NC(=O)[C@H](Cc2ccc(OCC(=O)O)cc2)NC(=O)[C@H](CNC)NC(=O)CSC[C@@H](C(=O)N[C@@H](C)C(N)=O)NC(=O)[C@H](C(C)O)NC(=O)[C@H](C(C)C)NC(=O)[C@H](CC(C)C)NC(=O)[C@H](CCN)NC(=O)[C@@H](CC(C)C)NC(=O)[C@H](CCCN)NC1=O (stereo partly drawn) [Compound 2512] ({CH2CO}-[Dap(Me)]Y(Carboxymethyl)DWV[Bip][Ile(3ξ)][Orn][dL][Dab]LV[Thr(3ξ)]CA-NH2; thioether N-14),10.8 nM
4,CC(C)C[C@H]1NC(=O)[C@H](CCCN)NC(=O)[C@H](C(C)C)NC(=O)[C@H](Cc2ccc(-c3ccccc3)cc2)NC(=O)[C@H](C(C)C)NC(=O)[C@H](Cc2c[nH]c3ccccc23)NC(=O)[C@H](CC(=O)O)NC(=O)[C@H](Cc2ccc(OCC(=O)O)cc2)NC(=O)[C@H](CCCCNC(=N)N)N(C)C(=O)CSC[C@@H](C(=O)N[C@@H](C)C(N)=O)NC(=O)[C@H](CO)NC(=O)[C@H](C(C)C)NC(=O)[C@H](CC2CCCCC2)NC(=O)[C@H](CCN)NC1=O [Compound 2513] ({CH2CO}-[NMehArg]Y(Carboxymethyl)DWV[Bip]V[Orn][dL][Dab][Cha]VSCA-NH2; thioether N-14),18 nM
5,CC(C)C[C@H]1NC(=O)[C@H](CCCN)NC(=O)[C@H](C(C)C)NC(=O)[C@H](Cc2ccc(-c3ccccc3)cc2)NC(=O)[C@H](C(C)C)NC(=O)[C@H](Cc2c[nH]c3ccccc23)NC(=O)[C@H](CC(=O)O)NC(=O)[C@H](Cc2ccc(OCC(=O)O)cc2)NC(=O)[C@H](CCO)NC(=O)CSC[C@@H](C(=O)N[C@@H](C)C(N)=O)NC(=O)[C@H](C(C)O)NC(=O)[C@H](C(C)C)NC(=O)[C@H](CC2CCCCC2)NC(=O)[C@H](CCN)NC1=O (stereo partly drawn) [Compound 2514],5.4 nM
6,CNC[C@@H]1NC(=O)CSC[C@@H](C(=O)N[C@@H](C)C(N)=O)NC(=O)[C@H](C(C)O)NC(=O)[C@H](C(C)C)NC(=O)[C@H](CC2CCCCC2)NC(=O)[C@H](CCN)NC(=O)[C@@H](CC(C)C)NC(=O)[C@H](CCCN)NC(=O)[C@H](C(C)C)NC(=O)[C@H](Cc2ccc(-c3ccccc3)cc2)NC(=O)[C@H](C(C)C)NC(=O)[C@H](Cc2c[nH]c3ccccc23)NC(=O)[C@H](CC(=O)O)NC(=O)[C@H](Cc2ccc(OCC(=O)O)cc2)NC1=O (stereo partly drawn) [Compound 2515],16.3 nM
